How the values were obtained:
Rattus norvegicus = species: Rattus norvegicus; settings: dose 3 mg/kg; route intravenous
Description: Change in systolic blood pressure before and after intravenous administration of 3 mg/kg dose in rats

[1] = molecular target: Glutamate receptor ionotropic, AMPA (Rattus norvegicus, UniProt P19490+P19491+P19492+P19493)
[2] = molecular target: Glutamate receptor ionotropic, AMPA (Rattus norvegicus) (UniProt P19491+P19492+P19493+P19490); assay: Antagonistic activity against Ca++permeable Ionotropic glutamate receptor AMPA as concentration of compound that reduces the inward current induced by kainate by 50% in Xenopus oocytes; format: functional, cell-based; settings: Oocyte; concentration not given here
[3] = Inhibitory activity against [Ca(2+)]-impermeable Ionotropic glutamate receptor AMPA was determined; settings: concentration not given here

IC50 [1]	inhibition [2]	Compound	Delta SBP (Rattus norvegicus)	inhibition [3]
790 nM	–	CC(C)CNCCCCNCC1CCN(C(=O)Cc2cccc3ccccc23)CC1	7 mmHg	–
–	35%	O=C(Cc1cccc2ccccc12)N1CCC(CNCCCCNCC2CCOCC2)CC1	-22 mmHg	–
–	1%	O=C(Cc1cccc2ccccc12)N1CCC(CNCCCCCCC2CCCCC2)CC1	-50 mmHg	–
–	54%	NCCCCNCC1CCN(C(=O)Cc2cccc3ccccc23)CC1	-53 mmHg	–
–	42%	O=C(Cc1cccc2ccccc12)N1CCC(CCCCCCNCC2CCCCC2)CC1	-35 mmHg	–
–	44%	O=C(Cc1cccc2ccccc12)N1CCC(CNCCCCNCCCO)CC1	-6 mmHg	–
740 nM	–	CCCNCCCCNCC1CCN(C(=O)Cc2cccc3ccccc23)CC1	9 mmHg	–
530 nM	–	CN(C)CCCCNCC1CCN(C(=O)Cc2cccc3ccccc23)CC1	12 mmHg	–
730 nM	–	CC(C)NCCCCNCC1CCN(C(=O)Cc2cccc3ccccc23)CC1	10 mmHg	–
–	–	O=C(Cc1cccc2ccccc12)N1CCC(CNCCCCNCCN2CCCCC2)CC1	5 mmHg	–

Compound	IC50 [1]	inhibition [2]	Delta SBP (Rattus norvegicus)	inhibition [3]
O=C(Cc1cccc2ccccc12)N1CCC(CNCCCCN2CCCCC2)CC1	390 nM	–	4 mmHg	–
O=C(Cc1cccc2ccccc12)N1CCC(CNCCCCNCC2CCCCC2)CC1	250 nM	–	11 mmHg	4.4%

Reference: ChEMBL document CHEMBL1133985, “Synthesis of diaminobutane derivatives as potent Ca(2+)-permeable AMPA receptor antagonists” (Bioorg Med Chem Lett, 2001)
